# Values quoted from earlier work as cited in PubChem BioAssay AID1259409 (Chemical Carcinogenesis Research Information System (CCRIS), 2018).
# Test system: rodent chemically induced tumor inhibition, incidence and multiplicity
# Test: CCRIS tumor inhibitor studies
# Conditions: Dose [Inhibitor]: 0
compound,measurement,setting,value
CC(C)=CCC/C(C)=C/C=C/C(C)=C/C=C/C(C)=C/C=C/C=C(C)/C=C/C=C(C)/C=C/C=C(\C)CCC=C(C)C,"tumour outcome (control, treated, inhibition, significance)","Carcinogen: 7,12-DIMETHYLBENZ[A]ANTHRACENE, 57-97-6, 2.5 MG/KG ON DAYS ALTERNATE TO CARCINOGEN APPLICATION FOR STUDY DURATION (STUDY DURATION: 14 WK), Route [Inhibitor]: GAVAGE, Species: HAMSTER, Strain/Sex: SYRIAN/MALE, Target Tissue: Type of Lesion: BUCCAL POUCH: SQUAMOUS CELL CARCINOMA, Dose [Carcinogen]: 0.5% IN LIQUID PARAFFIN ON RIGHT BUCCAL POUCH 3X/WK FOR 14 WK, Promoter: NONE USED","6/6 (100%), 0/6 (0%), 100%, not calculated"
same,"tumour outcome (control, treated, inhibition, significance)","Carcinogen: DIETHYLNITROSAMINE: 55-18-5, N-METHYL-N-NITROSOUREA, 684-93-5, 1,2-DIMETHYLHYDRAZINE, 540-73-8, Carcinogen: DIETHYLNITROSAMINE: 55-18-5, N-METHYL-N-NITROSOUREA, 684-93-5, 1,2-DIMETHYLHYDRAZINE, 540-73-8, 25 PPM IN DIET FOR 21 WK BEGINNING 2 WK POST CARCINOGEN TREATMENT (STUDY DURATION: 213 D), Route [Inhibitor]: ORAL, Species: MOUSE, Strain/Sex: B6C3F1/FEMALE, Target Tissue: Type of Lesion: LUNG: ADENOMA, Dose [Carcinogen]: 10 MG/KG BW DEN TWICE ON DAYS 1 AND 21, 120 PPM MNU IN DRINKING WATER DURING WKS 4-9, 20 MG/KG BW DMH 2/WK DURING WKS 4-, Dose [Carcinogen]: 10 MG/KG BW DEN TWICE ON DAYS 1 AND 21, 120 PPM MNU IN DRINKING WATER DURING WKS 4-9, 20 MG/KG BW DMH 2/WK DURING WKS 4-","6/16 (38%), 3/16 (19%), 50%, not significant"
same,outcome,"Carcinogen: DIETHYLNITROSAMINE: 55-18-5, N-METHYL-N-NITROSOUREA, 684-93-5, 1,2-DIMETHYLHYDRAZINE, 540-73-8, Carcinogen: DIETHYLNITROSAMINE: 55-18-5, N-METHYL-N-NITROSOUREA, 684-93-5, 1,2-DIMETHYLHYDRAZINE, 540-73-8, 25 PPM IN DIET FOR 21 WK BEGINNING 2 WK POST CARCINOGEN TREATMENT (STUDY DURATION: 213 D), Route [Inhibitor]: ORAL, Species: MOUSE, Strain/Sex: B6C3F1/FEMALE, Target Tissue: Type of Lesion: LUNG: CARCINOMA, Dose [Carcinogen]: 10 MG/KG BW DEN TWICE ON DAYS 1 AND 21, 120 PPM MNU IN DRINKING WATER DURING WKS 4-9, 20 MG/KG BW DMH 2/WK DURING WKS 4-, Dose [Carcinogen]: 10 MG/KG BW DEN TWICE ON DAYS 1 AND 21, 120 PPM MNU IN DRINKING WATER DURING WKS 4-9, 20 MG/KG BW DMH 2/WK DURING WKS 4-","0/16 (0%), 0/16 (0%), 0%, not significant"
same,"tumour outcome (control, treated, inhibition, significance)","Carcinogen: DIETHYLNITROSAMINE: 55-18-5, N-METHYL-N-NITROSOUREA, 684-93-5, 1,2-DIMETHYLHYDRAZINE, 540-73-8, Carcinogen: DIETHYLNITROSAMINE: 55-18-5, N-METHYL-N-NITROSOUREA, 684-93-5, 1,2-DIMETHYLHYDRAZINE, 540-73-8, 25 PPM IN DIET FOR 21 WK BEGINNING 2 WK POST CARCINOGEN TREATMENT (STUDY DURATION: 213 D), Route [Inhibitor]: ORAL, Species: MOUSE, Strain/Sex: B6C3F1/MALE, Target Tissue: Type of Lesion: LUNG: ADENOMA, Dose [Carcinogen]: 10 MG/KG BW DEN TWICE ON DAYS 1 AND 21, 120 PPM MNU IN DRINKING WATER DURING WKS 4-9, 20 MG/KG BW DMH 2/WK DURING WKS 4-, Dose [Carcinogen]: 10 MG/KG BW DEN TWICE ON DAYS 1 AND 21, 120 PPM MNU IN DRINKING WATER DURING WKS 4-9, 20 MG/KG BW DMH 2/WK DURING WKS 4-","11/16 (69%), 11/15 (69%), 0%, not significant"
same,"tumour outcome (control, treated, inhibition, significance)","Carcinogen: DIETHYLNITROSAMINE: 55-18-5, N-METHYL-N-NITROSOUREA, 684-93-5, 1,2-DIMETHYLHYDRAZINE, 540-73-8, Carcinogen: DIETHYLNITROSAMINE: 55-18-5, N-METHYL-N-NITROSOUREA, 684-93-5, 1,2-DIMETHYLHYDRAZINE, 540-73-8, 25 PPM IN DIET FOR 21 WK BEGINNING 2 WK POST CARCINOGEN TREATMENT (STUDY DURATION: 213 D), Route [Inhibitor]: ORAL, Species: MOUSE, Strain/Sex: B6C3F1/MALE, Target Tissue: Type of Lesion: LUNG: CARCINOMA, Dose [Carcinogen]: 10 MG/KG BW DEN TWICE ON DAYS 1 AND 21, 120 PPM MNU IN DRINKING WATER DURING WKS 4-9, 20 MG/KG BW DMH 2/WK DURING WKS 4-, Dose [Carcinogen]: 10 MG/KG BW DEN TWICE ON DAYS 1 AND 21, 120 PPM MNU IN DRINKING WATER DURING WKS 4-9, 20 MG/KG BW DMH 2/WK DURING WKS 4-","1/16 (6%), 2/16 (12%), -98%, not significant"
same,"tumour outcome (control, treated, inhibition, significance)","Carcinogen: DIETHYLNITROSAMINE: 55-18-5, N-METHYL-N-NITROSOUREA, 684-93-5, 1,2-DIMETHYLHYDRAZINE, 540-73-8, Carcinogen: DIETHYLNITROSAMINE: 55-18-5, N-METHYL-N-NITROSOUREA, 684-93-5, 1,2-DIMETHYLHYDRAZINE, 540-73-8, 50 PPM IN DIET FOR 21 WK BEGINNING 2 WK POST CARCINOGEN TREATMENT (STUDY DURATION: 213 D), Route [Inhibitor]: ORAL, Species: MOUSE, Strain/Sex: B6C3F1/FEMALE, Target Tissue: Type of Lesion: LUNG: ADENOMA, Dose [Carcinogen]: 10 MG/KG BW DEN TWICE ON DAYS 1 AND 21, 120 PPM MNU IN DRINKING WATER DURING WKS 4-9, 20 MG/KG BW DMH 2/WK DURING WKS 4-, Dose [Carcinogen]: 10 MG/KG BW DEN TWICE ON DAYS 1 AND 21, 120 PPM MNU IN DRINKING WATER DURING WKS 4-9, 20 MG/KG BW DMH 2/WK DURING WKS 4-","6/16 (37%), 8/15 (53%), -42%, not significant"
same,outcome,"Carcinogen: DIETHYLNITROSAMINE: 55-18-5, N-METHYL-N-NITROSOUREA, 684-93-5, 1,2-DIMETHYLHYDRAZINE, 540-73-8, Carcinogen: DIETHYLNITROSAMINE: 55-18-5, N-METHYL-N-NITROSOUREA, 684-93-5, 1,2-DIMETHYLHYDRAZINE, 540-73-8, 50 PPM IN DIET FOR 21 WK BEGINNING 2 WK POST CARCINOGEN TREATMENT (STUDY DURATION: 213 D), Route [Inhibitor]: ORAL, Species: MOUSE, Strain/Sex: B6C3F1/FEMALE, Target Tissue: Type of Lesion: LUNG: CARCINOMA, Dose [Carcinogen]: 10 MG/KG BW DEN TWICE ON DAYS 1 AND 21, 120 PPM MNU IN DRINKING WATER DURING WKS 4-9, 20 MG/KG BW DMH 2/WK DURING WKS 4-, Dose [Carcinogen]: 10 MG/KG BW DEN TWICE ON DAYS 1 AND 21, 120 PPM MNU IN DRINKING WATER DURING WKS 4-9, 20 MG/KG BW DMH 2/WK DURING WKS 4-","0/16 (0%), 0/15 (0%), 0%, not significant"
same,"tumour outcome (control, treated, inhibition, significance)","Carcinogen: DIETHYLNITROSAMINE: 55-18-5, N-METHYL-N-NITROSOUREA, 684-93-5, 1,2-DIMETHYLHYDRAZINE, 540-73-8, Carcinogen: DIETHYLNITROSAMINE: 55-18-5, N-METHYL-N-NITROSOUREA, 684-93-5, 1,2-DIMETHYLHYDRAZINE, 540-73-8, 50 PPM IN DIET FOR 21 WK BEGINNING 2 WK POST CARCINOGEN TREATMENT (STUDY DURATION: 213 D), Route [Inhibitor]: ORAL, Species: MOUSE, Strain/Sex: B6C3F1/MALE, Target Tissue: Type of Lesion: LUNG: ADENOMA, Dose [Carcinogen]: 10 MG/KG BW DEN TWICE ON DAYS 1 AND 21, 120 PPM MNU IN DRINKING WATER DURING WKS 4-9, 20 MG/KG BW DMH 2/WK DURING WKS 4-, Dose [Carcinogen]: 10 MG/KG BW DEN TWICE ON DAYS 1 AND 21, 120 PPM MNU IN DRINKING WATER DURING WKS 4-9, 20 MG/KG BW DMH 2/WK DURING WKS 4-","11/16 (69%), 3/16 (19%), 73%, not significant"
same,"tumour outcome (control, treated, inhibition, significance)","Carcinogen: DIETHYLNITROSAMINE: 55-18-5, N-METHYL-N-NITROSOUREA, 684-93-5, 1,2-DIMETHYLHYDRAZINE, 540-73-8, Carcinogen: DIETHYLNITROSAMINE: 55-18-5, N-METHYL-N-NITROSOUREA, 684-93-5, 1,2-DIMETHYLHYDRAZINE, 540-73-8, 50 PPM IN DIET FOR 21 WK BEGINNING 2 WK POST CARCINOGEN TREATMENT (STUDY DURATION: 213 D), Route [Inhibitor]: ORAL, Species: MOUSE, Strain/Sex: B6C3F1/MALE, Target Tissue: Type of Lesion: LUNG: CARCINOMA, Dose [Carcinogen]: 10 MG/KG BW DEN TWICE ON DAYS 1 AND 21, 120 PPM MNU IN DRINKING WATER DURING WKS 4-9, 20 MG/KG BW DMH 2/WK DURING WKS 4-, Dose [Carcinogen]: 10 MG/KG BW DEN TWICE ON DAYS 1 AND 21, 120 PPM MNU IN DRINKING WATER DURING WKS 4-9, 20 MG/KG BW DMH 2/WK DURING WKS 4-","1/16 (6%), 0/16 (0%), 100%, not significant"
same,"tumour outcome (control, treated, inhibition, significance)","Carcinogen: DIETHYLNITROSAMINE, 55-18-5, N-METHYL-N-NITROSOUREA, 684-93-5, 1,2-DIMETHYLHYDRAZINE, 306-37-6, Carcinogen: DIETHYLNITROSAMINE, 55-18-5, N-METHYL-N-NITROSOUREA, 684-93-5, 1,2-DIMETHYLHYDRAZINE, 306-37-6, 25 PPM IN DRINKING WATER FOR 21 WK BEGINNING 2 WK POST CARCINOGEN TREATMENT (STUDY DURATION: 32 WK), Route [Inhibitor]: ORAL, Species: MOUSE, Strain/Sex: B6C3F1/FEMALE, Target Tissue: Type of Lesion: LUNG: ADENOMA, Dose [Carcinogen]: 10 MG/KG BW DEN ON DAYS 11 AND 32 OF AGE, 120 PPM MNU IN DRINKING WATER FROM WKS 4 TO 9, 20 MG/KG BW DMH 2/WK FOR 5 WK, Promoter: NONE USED","6/16 (38%), 3/16 (19%), 50%, not significant"
